Source: patent publication US7371225B2, “Method for convection enhanced delivery of therapeutic agents” (The United States of America as represented by the …, priority 2002, dated 2008)
Where two headings read alike, the source gives them in different places.

Experiments:
cerebral white matter [1] = assay: CED of iopamidol in cerebral white matter with real-time CT-imaging; type: in vivo, primates (Macaca mulatta)
Protocol: (§1) Four primates (Macaca mulatta) underwent CED of various volumes (total volume of 90 to 150 μl) of iopamidol (777 Da) in the cerebral white matter combined with CT-imaging during and after infusion (up to 5 days post-infusion), as well as quantitative autoradiography (QAR). Clinical observation (≦20 weeks) and histopathology were used to evaluate safety and toxicity.

cerebral white matter [2] = details: in vivo
Protocol: as §1

[3] = in vivo; cited from earlier work
[4] = test system: sympathetic ganglia explants; details: cited from earlier work
putamen = test system: putamen; set-up: species or system rhesus monkeys; details: rhesus monkey, in vivo
Protocol: Anesthesia was induced with ketamine (10 mg/kg), xylazine (0.5 mg/kg), and thiopental sodium (1 mg/kg). The animals were secured in a monkey stereotactic frame (Kopf Instruments, Tujunga, Calif.). A Hamilton 32-gauge metal blunt tip needle connected to a 250 μl Hamilton syringe (Thompson Instruments, Chantilly, Va.) was stereotactically inserted in the center of the right putamen (anteroposterior 15.5 mm, mediolateral 12 mm and dorsoventral 24.5 mm relative to the tympanic canals and the mid-sagittal sinus)^15. After a delay of 90 minutes, the infusion was begun at 1.0 μl/min.
For CT, 130 μl, 200 μl and 235 μl of the tracer IPA-BSA/^14C-BSA mixture (35-55 Iopanoic Acid/BSA, 61.3-80.4 mg/ml ^14C-BSA) was infused. […]
CT and MRI images were analyzed in the MEDx software package (Sensor Systems, Inc., Sterling, Va.) running on a Sun workstation (Sun Microsystems, Inc., Palo Alto, Calif.). […] These were measured by volume segmentation using two different thresholds. Vd(1) was calculated as the volumes of distribution from CT and MRI containing at least 10% of the total increase in signal intensity due to the addition of contrast agent. A rectangular region of interest (ROI) over the infusion area was defined and in the corresponding site in the contralateral hemisphere, and the perfused maximal signal intensity (peak) and the unperfused maximal signal intensity (background) was measured. […]

Compound: C[C@H](O)C(=O)Nc1c(I)c(C(=O)NC(CO)CO)c(I)c(C(=O)NC(CO)CO)c1I [iopamidol]
- Distribution of infusate identifiable post-infusion up to (cerebral white matter [1]; CT-imaging): up to 72 hours
- Homogeneity of distribution of infusate (cerebral white matter [1]; CT-imaging): homogeneous
- Overall Vd:Vi ratio, mean±S.D. (cerebral white matter [1]; real-time CT-imaging, total volume 90 to 150 μl): 4.1±0.7
- Clinical or histopathologic evidence of toxicity (cerebral white matter [2]): None of the animals had clinical or histopathologic evidence of toxicity

Compound: CCC(Cc1c(I)cc(I)c(N)c1I)C(=O)O (centres unmarked) [iopanoic acid]
- Neurotoxicity in the clinical setting [3]: not to be neurotoxic
- Side effects when used for imaging the gallbladder [3]: rare side effects (acute renal insufficiency, acute thrombocytompenia)
- Toxicity in tissue culture ([4]; 0.01 mM): No toxicity

Compound: CCC(Cc1c(I)cc(I)c(N)c1I)C(=O)[O-].[Na+] (centres unmarked) [sodium iopanoate]
- Toxicity in tissue culture ([4]; 0.1 mM): vacuolization of fibroblasts
- Toxicity in tissue culture ([4]; 1 mM): immediate death of sympathetic ganglia explants

Compound: IPA-BSA: Iopanoic acid conjugated to BSA, surrogate tracer for CT
- Mean Vd(1) (putamen): 3.44±0.74
- Mean Vd(2) (putamen): 4.51±1.31
